Tested on: MV-4-11 cells
Experiment: Gene expression microarray analysis (Affymetrix PrimeView) and GSEA
Type: cell-based, human
Parameters: RFU PODN (11730768_x_at) / Fold change /veh PODN (11730768_x_at) / RFU LINC00158 (11744669_a_at) / Fold change /veh LINC00158 (11744669_a_at) / RFU DUSP10 (11751237_a_at) / Fold change /veh DUSP10 (11751237_a_at) / RFU ID3 (11757404_x_at) / Fold change /veh ID3 (11757404_x_at) / RFU PLEKHG5 (11737974_s_at) / Fold change /veh PLEKHG5 (11737974_s_at) / RFU LRRC4B (11730491_at) / Fold change /veh LRRC4B (11730491_at) / RFU GIMAP4 (11747438_a_at) / Fold change /veh GIMAP4 (11747438_a_at) / RFU KRT8 (11758183_x_at) / Fold change /veh KRT8 (11758183_x_at) / RFU CNN1 (11734310_a_at) / Fold change /veh CNN1 (11734310_a_at) / RFU VPS37D (11726825_at) / Fold change /veh VPS37D (11726825_at) / RFU C10orf10 (11716522_x_at) / Fold change /veh C10orf10 (11716522_x_at) / RFU KIR2DL2 /// KIR2DL4 /// KIR2DL5A /// KIR2DL5B /// KIR2DS1 /// KIR2DS2 /// KIR2DS3 /// KIR2DS4 /// KIR3DL3 /// KIR3DL3 /// KIR3DS1 (11738374_at) / Fold change /veh KIR2DL2 /// KIR2DL4 /// KIR2DL5A /// KIR2DL5B /// KIR2DS1 /// KIR2DS2 /// KIR2DS3 /// KIR2DS4 /// KIR3DL3 /// KIR3DL3 /// KIR3DS1 (11738374_at) / RFU C1QL1 (11718748_at) / Fold change /veh C1QL1 (11718748_at) / RFU TMPRSS4 (11747572_a_at) / Fold change /veh TMPRSS4 (11747572_a_at) / RFU HAMP (11756126_x_at) / Fold change /veh HAMP (11756126_x_at) / RFU RNFT2 (11725882_a_at) / Fold change /veh RNFT2 (11725882_a_at) / RFU NR4A2 (11747474_a_at) / Fold change /veh NR4A2 (11747474_a_at) / RFU ABCC12 (11746883_a_at) / Fold change /veh ABCC12 (11746883_a_at) / RFU TMEM136 (11760407_x_at) / Fold change /veh TMEM136 (11760407_x_at) / RFU CLDN22 /// WWC2 (11732394_at) / Fold change /veh CLDN22 /// WWC2 (11732394_at) / RFU HLA-DPB1 (11760878_x_at) / Fold change /veh HLA-DPB1 (11760878_x_at) / RFU SPINT1 (11716480_a_at) / Fold change /veh SPINT1 (11716480_a_at) / RFU GAP43 (11754022_s_at) / Fold change /veh GAP43 (11754022_s_at) / RFU A4GNT (11735810_at) / Fold change /veh A4GNT (11735810_at) / RFU PRB3 (11715151_x_at) / Fold change /veh PRB3 (11715151_x_at) / RFU TUBB4B (11761932_at) / Fold change /veh TUBB4B (11761932_at) / RFU CAPN14 (11732068_a_at) / Fold change /veh CAPN14 (11732068_a_at) / RFU TMCC2 (11721928_a_at) / Fold change /veh TMCC2 (11721928_a_at) / RFU IRGQ (11745062_a_at) / Fold change /veh IRGQ (11745062_a_at) / RFU FAM174B (11720279_a_at) / Fold change /veh FAM174B (11720279_a_at) / RFU TMPRSS4 (11748680_a_at) / Fold change /veh TMPRSS4 (11748680_a_at) / RFU FAM212B (11763350_a_at) / Fold change /veh FAM212B (11763350_a_at) / RFU PLEKHG5 (11743358_a_at) / Fold change /veh PLEKHG5 (11743358_a_at) / RFU ZSCAN30 (11745921_a_at) / Fold change /veh ZSCAN30 (11745921_a_at) / RFU CMKLR1 (11741424_a_at) / Fold change /veh CMKLR1 (11741424_a_at) / RFU LOC101060620 /// MAPK8IP1 (11723275_at) / Fold change /veh LOC101060620 /// MAPK8IP1 (11723275_at) / RFU SPTSSB (11747773_x_at) / Fold change /veh SPTSSB (11747773_x_at) / RFU PRSS12 (11739890_at) / Fold change /veh PRSS12 (11739890_at) / RFU BIN1 (11741810_x_at) / Fold change /veh BIN1 (11741810_x_at) / RFU WNT11 (11732464_a_at) / Fold change /veh WNT11 (11732464_a_at) / RFU C10orf10 (11716521_a_at) / Fold change /veh C10orf10 (11716521_a_at) / RFU C5orf56 (11738089_at) / Fold change /veh C5orf56 (11738089_at) / RFU CYB561 (11721691_x_at) / Fold change /veh CYB561 (11721691_x_at) / RFU ANKRD19P (11752326_a_at) / Fold change /veh ANKRD19P (11752326_a_at) / RFU OR2T12 /// OR2T33 /// OR2T8 (11738714_s_at) / Fold change /veh OR2T12 /// OR2T33 /// OR2T8 (11738714_s_at) / RFU VCAN (11748164_a_at) / Fold change /veh VCAN (11748164_a_at) / RFU JSRP1 (11732532_at) / Fold change /veh JSRP1 (11732532_at) / RFU KRTAP10-11 (11738290_x_at) / Fold change /veh KRTAP10-11 (11738290_x_at) / RFU MYO3A (11730013_a_at) / Fold change /veh MYO3A (11730013_a_at) / RFU EBF3 (11725865_a_at) / Fold change /veh EBF3 (11725865_a_at) / RFU CAMK2N1 (11719241_x_at) / Fold change /veh CAMK2N1 (11719241_x_at) / RFU C5orf56 (11738088_a_at) / Fold change /veh C5orf56 (11738088_a_at) / RFU OLFML3 (11715873_a_at) / Fold change /veh OLFML3 (11715873_a_at) / RFU LOC100653217 /// NTM (11731650_a_at) / Fold change /veh LOC100653217 /// NTM (11731650_a_at) / RFU MAPK11 (11762145_a_at) / Fold change /veh MAPK11 (11762145_a_at) / RFU FIZ1 (11724087_x_at) / Fold change /veh FIZ1 (11724087_x_at) / RFU OASL (11726364_x_at) / Fold change /veh OASL (11726364_x_at) / RFU SOX15 (11748057_x_at) / Fold change /veh SOX15 (11748057_x_at) / RFU CD79A (11719716_a_at) / Fold change /veh CD79A (11719716_a_at) / RFU HIST1H1D (11736915_at) / Fold change /veh HIST1H1D (11736915_at) / RFU CASKIN2 (11723855_a_at) / Fold change /veh CASKIN2 (11723855_a_at) / RFU LOC730098 (11760151_x_at) / Fold change /veh LOC730098 (11760151_x_at) / RFU OR4N2 (11742367_at) / Fold change /veh OR4N2 (11742367_at) / RFU PRRT2 (11749266_a_at) / Fold change /veh PRRT2 (11749266_a_at) / RFU SNX32 (11753110_a_at) / Fold change /veh SNX32 (11753110_a_at) / RFU CDHR5 (11726645_a_at) / Fold change /veh CDHR5 (11726645_a_at) / RFU RCAN1 (11760418_a_at) / Fold change /veh RCAN1 (11760418_a_at) / RFU FAM167A (11723789_a_at) / Fold change /veh FAM167A (11723789_a_at) / RFU FAM26E (11764081_at) / Fold change /veh FAM26E (11764081_at) / RFU ISYNA1 (11749810_s_at) / Fold change /veh ISYNA1 (11749810_s_at) / RFU ACY1 (11761880_at) / Fold change /veh ACY1 (11761880_at) / RFU 11764098_at / Fold change /veh 11764098_at / RFU SAMD14 (11745864_x_at) / Fold change /veh SAMD14 (11745864_x_at) / RFU NPB (11741838_a_at) / Fold change /veh NPB (11741838_a_at) / RFU TMPRSS6 (11731388_a_at) / Fold change /veh TMPRSS6 (11731388_a_at) / RFU KRTAP10-2 (11738614_at) / Fold change /veh KRTAP10-2 (11738614_at) / RFU ARHGAP8 /// PRR5-ARHGAP8 (11727945_x_at) / Fold change /veh ARHGAP8 /// PRR5-ARHGAP8 (11727945_x_at) / RFU KRTAP5-7 /// NADSYN1 (11734609_at) / Fold change /veh KRTAP5-7 /// NADSYN1 (11734609_at) / RFU RASL12 (11751679_a_at) / Fold change /veh RASL12 (11751679_a_at) / RFU CDKN2B (11736163_a_at) / Fold change /veh CDKN2B (11736163_a_at) / RFU PRF1 (11729649_at) / Fold change /veh PRF1 (11729649_at) / RFU, ZNF638 /// ZNF638-IT1 / Fold change vs veh, ZNF638 /// ZNF638-IT1 / RFU, PANK3 / Fold change vs veh, PANK3 / RFU, SH3YL1 / Fold change vs veh, SH3YL1 / RFU, ZEB2 / Fold change vs veh, ZEB2 / RFU, NRIP1 / Fold change vs veh, NRIP1 / RFU, PTTG1IP / Fold change vs veh, PTTG1IP / RFU, CAPN2 / Fold change vs veh, CAPN2 / RFU, MED14 / Fold change vs veh, MED14 / RFU, SNORA58 / Fold change vs veh, SNORA58 / RFU, C1orf63 / Fold change vs veh, C1orf63 / RFU, LRRFIP1 / Fold change vs veh, LRRFIP1 / RFU, NDUFAF7 / Fold change vs veh, NDUFAF7 / RFU, SLC12A2 / Fold change vs veh, SLC12A2 / RFU, IBTK / Fold change vs veh, IBTK / RFU, ESF1 / Fold change vs veh, ESF1 / Fold change vs veh, TMEM50B / RFU, TAOK1 / Fold change vs veh, TAOK1 / RFU, ACBD3 / Fold change vs veh, ACBD3 / RFU, TMA16 / Fold change vs veh, TMA16 / RFU, RWDD3 / Fold change vs veh, RWDD3 / RFU, BCAT1 / Fold change vs veh, BCAT1 / RFU, EDEM3 / Fold change vs veh, EDEM3 / RFU, TMEM33 / Fold change vs veh, TMEM33 / RFU, WDR75 / Fold change vs veh, WDR75 / RFU, AHCTF1 / Fold change vs veh, AHCTF1 / RFU, TFRC / Fold change vs veh, TFRC / RFU, ZDHHC17 / Fold change vs veh, ZDHHC17 / RFU, NOM1 / Fold change vs veh, NOM1 / RFU, ARL8B / Fold change vs veh, ARL8B / RFU, ZBTB11 / Fold change vs veh, ZBTB11 / RFU, TAMM41 / Fold change vs veh, TAMM41 / RFU, KIAA1704 /// LOC100996395 / Fold change vs veh, KIAA1704 /// LOC100996395 / RFU, ING1 / Fold change vs veh, ING1 / RFU, TRMT61B / Fold change vs veh, TRMT61B / RFU, FUBP3 / Fold change vs veh, FUBP3 / RFU, TP53 / Fold change vs veh, TP53 / RFU, TNKS2 / Fold change vs veh, TNKS2 / RFU, ZFP14 / Fold change vs veh, ZFP14 / RFU, ACTR2 / Fold change vs veh, ACTR2 / RFU, PPP3R1 / Fold change vs veh, PPP3R1 / RFU, PIK3R1 / Fold change vs veh, PIK3R1 / RFU, HNRNPA1 / Fold change vs veh, HNRNPA1 / RFU, RNF170 / Fold change vs veh, RNF170 / RFU, ZNF28 / Fold change vs veh, ZNF28 / RFU, RNGTT / Fold change vs veh, RNGTT / RFU, OGT / Fold change vs veh, OGT / RFU, BRD1 / Fold change vs veh, BRD1 / RFU, MARS / Fold change vs veh, MARS / RFU, ZNF655 / Fold change vs veh, ZNF655 / RFU, FAHD1 / Fold change vs veh, FAHD1 / RFU, BDP1 / Fold change vs veh, BDP1 / RFU, LRRCC1 / Fold change vs veh, LRRCC1 / RFU, ARID1A / Fold change vs veh, ARID1A / RFU, ZNF146 / Fold change vs veh, ZNF146 / RFU, ZNF330 / Fold change vs veh, ZNF330 / RFU, GPN3 / Fold change vs veh, GPN3 / RFU, C9orf123 / Fold change vs veh, C9orf123 / RFU, N4BP2L2 / Fold change vs veh, N4BP2L2 / RFU, ARFIP1 / Fold change vs veh, ARFIP1 / RFU, FAM179B / Fold change vs veh, FAM179B / RFU, BCL10 / Fold change vs veh, BCL10 / RFU, UHRF1BP1L / Fold change vs veh, UHRF1BP1L / RFU, BET1 / Fold change vs veh, BET1 / RFU, CNOT2 / Fold change vs veh, CNOT2 / RFU, ZNF268 / Fold change vs veh, ZNF268 / Fold change vs veh, ZNF507 / RFU, DGCR2 / Fold change vs veh, DGCR2 / RFU, WDSUB1 / Fold change vs veh, WDSUB1 / Fold change vs veh, HSP90B1 /// MIR3652 / RFU, ADSS / Fold change vs veh, ADSS / RFU, GK / Fold change vs veh, GK / RFU, ZNF148 / Fold change vs veh, ZNF148 / RFU, TAF9 / Fold change vs veh, TAF9 / RFU, SLC1A5 / Fold change vs veh, SLC1A5 / RFU, SLMO2 / Fold change vs veh, SLMO2 / RFU, ABCC4 / Fold change vs veh, ABCC4 / RFU, LOC101060439 /// RAP1B / Fold change vs veh, LOC101060439 /// RAP1B / RFU, RFX7 / Fold change vs veh, RFX7 / RFU, GTPBP10 / Fold change vs veh, GTPBP10 / RFU, CNEP1R1 / Fold change vs veh, CNEP1R1 / RFU, BIVM-ERCC5 /// ERCC5 / Fold change vs veh, BIVM-ERCC5 /// ERCC5 / RFU, ILF3 / Fold change vs veh, ILF3 / RFU 11762660_at / Fold change /veh 11762660_at / RFU VCAN (11757783_s_at) / Fold change /veh VCAN (11757783_s_at) / RFU DDX43 (11728927_at) / Fold change /veh DDX43 (11728927_at) / RFU KRT8 (11758188_x_at) / Fold change /veh KRT8 (11758188_x_at) / RFU NKD1 (11759106_at) / Fold change /veh NKD1 (11759106_at) / RFU SRD5A1 (11742802_a_at) / Fold change /veh SRD5A1 (11742802_a_at) / RFU TPSAB1 /// TPSB2 (11721975_s_at) / Fold change /veh TPSAB1 /// TPSB2 (11721975_s_at) / RFU GSTM3 (11746129_a_at) / Fold change /veh GSTM3 (11746129_a_at) / RFU IL23R (11737362_x_at) / Fold change /veh IL23R (11737362_x_at) / RFU TMEM51 (11727254_a_at) / Fold change /veh TMEM51 (11727254_a_at) / RFU PIWIL2 (11732686_x_at) / Fold change /veh PIWIL2 (11732686_x_at) / RFU ORM1 (11744905_x_at) / Fold change /veh ORM1 (11744905_x_at) / RFU CCDC152 (11743942_at) / Fold change /veh CCDC152 (11743942_at) / RFU ECM1 (11717891_a_at) / Fold change /veh ECM1 (11717891_a_at) / RFU IL23R (11748794_a_at) / Fold change /veh IL23R (11748794_a_at) / RFU TNFAIP8L3 (11732012_x_at) / Fold change /veh TNFAIP8L3 (11732012_x_at) / RFU MBOAT4 (11741988_at) / Fold change /veh MBOAT4 (11741988_at) / RFU 11764193_at / Fold change /veh 11764193_at / RFU TMEM53 (11763286_at) / Fold change /veh TMEM53 (11763286_at) / RFU MAGEB2 (11727129_at) / Fold change /veh MAGEB2 (11727129_at) / RFU TMEM200A (11744735_a_at) / Fold change /veh TMEM200A (11744735_a_at) / RFU CCDC152 (11751479_a_at) / Fold change /veh CCDC152 (11751479_a_at) / RFU FAM211A (11726209_a_at) / Fold change /veh FAM211A (11726209_a_at) / RFU RGS16 (11746705_a_at) / Fold change /veh RGS16 (11746705_a_at) / RFU VCAN (11755009_s_at) / Fold change /veh VCAN (11755009_s_at) / RFU RHOB (11743442_s_at) / Fold change /veh RHOB (11743442_s_at) / RFU RGS16 (11720943_a_at) / Fold change /veh RGS16 (11720943_a_at) / RFU RGS16 (11720944_at) / Fold change /veh RGS16 (11720944_at) / RFU, VPS4B / Fold change vs veh, VPS4B / RFU, CREB1 / Fold change vs veh, CREB1 / RFU, DNAJC13 / Fold change vs veh, DNAJC13 / RFU, GNAQ / Fold change vs veh, GNAQ / RFU, CDK5R1 / Fold change vs veh, CDK5R1 / RFU, ZRANB3 / Fold change vs veh, ZRANB3 / RFU, CUL4A / Fold change vs veh, CUL4A / RFU, CCNY / Fold change vs veh, CCNY / RFU, UFL1 / Fold change vs veh, UFL1 / RFU, COG3 / Fold change vs veh, COG3 / RFU, DIAPH2 / Fold change vs veh, DIAPH2 / RFU, SKA2 / Fold change vs veh, SKA2 / RFU, AFF3 / Fold change vs veh, AFF3 / RFU, LMF1 / Fold change vs veh, LMF1 / RFU, IPO11 / Fold change vs veh, IPO11 / RFU, DFFB / Fold change vs veh, DFFB / RFU, FOXP1 / Fold change vs veh, FOXP1 / RFU, CARD8 / Fold change vs veh, CARD8 / RFU, STRN3 / Fold change vs veh, STRN3 / RFU, ADK / Fold change vs veh, ADK / RFU, RASSF2 / Fold change vs veh, RASSF2 / RFU, WIPF1 / Fold change vs veh, WIPF1 / RFU, LARP1B / Fold change vs veh, LARP1B / RFU, RASA1 / Fold change vs veh, RASA1 / RFU, RB1 / Fold change vs veh, RB1 / RFU, PPFIA1 / Fold change vs veh, PPFIA1 / RFU, MAT2A / Fold change vs veh, MAT2A / RFU, CCT5 / Fold change vs veh, CCT5 / RFU, WDR92 / Fold change vs veh, WDR92 / RFU, CUX1 / Fold change vs veh, CUX1 / RFU, TTC7A / Fold change vs veh, TTC7A / RFU, TMEM135 / Fold change vs veh, TMEM135 / RFU, DEPTOR / Fold change vs veh, DEPTOR / RFU, CPM / Fold change vs veh, CPM / RFU, DNAJB6 / Fold change vs veh, DNAJB6 / RFU, CACNA2D3 / Fold change vs veh, CACNA2D3 / RFU, DTX4 / Fold change vs veh, DTX4 / RFU, TFCP2 / Fold change vs veh, TFCP2 / RFU, GMCL1 /// GMCL1P1 / Fold change vs veh, GMCL1 /// GMCL1P1 / RFU, AEBP2 / Fold change vs veh, AEBP2 / RFU, SNHG1 /// SNORD22 /// SNORD25 /// SNORD26 /// SNORD27 /// SNORD28 /// SNORD29 /// SNORD31 / Fold change vs veh, SNHG1 /// SNORD22 /// SNORD25 /// SNORD26 /// SNORD27 /// SNORD28 /// SNORD29 /// SNORD31 / Fold change (Aza/veh), C12orf56 (ProbeSet 11735607_a_at) / Fold change (ACY-1035/veh), C12orf56 (ProbeSet 11735607_a_at) / Fold change (Aza/veh), FGFR1OP (ProbeSet 11751329_s_at) / Fold change (ACY-1035/veh), FGFR1OP (ProbeSet 11751329_s_at) / Fold change (Aza/veh), VPS36 (ProbeSet 11739960_a_at) / Fold change (ACY-1035/veh), VPS36 (ProbeSet 11739960_a_at) / RFU SYPL1 (11715823_x_at) / Fold change /veh SYPL1 (11715823_x_at) / RFU IGFBP7 (11715501_s_at) / Fold change /veh IGFBP7 (11715501_s_at) / RFU REEP3 (11722064_at) / Fold change /veh REEP3 (11722064_at) / RFU IGLL1 (11728026_x_at) / Fold change /veh IGLL1 (11728026_x_at): dose or concentration left out as unconfirmed
Settings: MV-4-11 cells, 48 hours

Structure (SMILES): Nc1ccc(-c2cccs2)cc1NC(=O)c1ccc2c(c1)cc(C1CC1)n2CCN1CCOCC1 [ACY-1035]
- RFU HLA-DPB1 (11760878_x_at): 21.61 RFU

Reference: publication PMC5218480 (PLoS ONE, 2017)
